# Source: ChEMBL document CHEMBL4888484, “Replenishing the malaria drug discovery pipeline: Screening and hit evaluation of the MMV Hit Generation Library 1 (HGL1) against asexual blood stage Plasmodium falciparum ,using a nano luciferase reporter read-out” (2022)
# pIC50: −log10 of the molar value.
# Columns and labels:
# Plasmodium falciparum [1] = experiment: Hit confirmation in dose-response curve in NF54 nanoGlo assay, at 72h; assay type: functional, organism-based, Erythrocyte; design: timepoint 72 hour; details: Plasmodium falciparum, NF54, Erythrocyte, 72 h
# Plasmodium falciparum [2] = experiment: Hit confirmation in dose-response curve in NF54 nanoGlo assay, at 12h; assay type: functional, organism-based, Erythrocyte; design: timepoint 12 hour; details: Plasmodium falciparum, NF54, Erythrocyte, 12 h
# Plasmodium falciparum [3] = experiment: Hit confirmation in dose-response curve in NF54 pLDH assay, at 72h; assay type: functional, organism-based; design: timepoint 72 hour; details: NF54, Erythrocyte
# [4] = Hit confirmation in dose-response curve in HepG2 cytotoxicity assay, at 72h; assay type: toxicity, cell-based; design: timepoint 72 hour; details: human, HepG2 cells
# Plasmodium falciparum [5] = experiment: Hit confirmation in dose-response curve in Dd2 pLDH assay, at 72h; assay type: functional, organism-based; design: timepoint 72 hour; details: Dd2, Erythrocyte
pIC50 (Plasmodium falciparum [1]),pIC50 (Plasmodium falciparum [2]),pIC50 (Plasmodium falciparum [3]),pIC50 (Plasmodium falciparum [5]),Structure (SMILES),IC50 at 72 h [4]
5.50,5.17,< 5.00,5.30,COc1cc(OC)cc(C(=O)Nc2ccc3nc(N4CCC(C)CC4)cc(C)c3c2)c1,> 10 µM
5.65,5.31,5.13,5.25,COc1ccc(-c2cc3nc(C)cc(N4CCN(C/C=C/c5ccccc5)CC4)n3n2)cc1OC,> 10 µM
5.45,< 5.00,5.15,5.31,CCn1cc(-c2nc(-c3ccccc3C)no2)c(=O)c2cc(F)c(N3CCOCC3)cc21,> 10 µM
5.86,5.61,5.50,5.75,CCOc1cc(C(=O)Nc2ccc3nc4c(c(Nc5ccc(OC)c(OC)c5)c3c2)CCCC4)cc(OCC)c1OCC,> 10 µM
5.62,5.24,5.56,5.43,COc1cc([C@H](CC(=O)NC2CCN(Cc3ccccc3)CC2)N2Cc3ccccc3C2=O)cc(OC)c1OC,> 10 µM
5.88,< 5.00,5.77,< 5.00,COc1nc(NC[C@H]2CCCN2C(C)C)ncc1F,> 10 µM
5.76,5.57,5.49,5.55,c1ccc(C(c2ccccc2)N2CCN(c3nn4cnnc4c4ccccc34)CC2)cc1,> 10 µM
5.56,< 5.00,5.02,5.13,CC(=O)Nc1c(-c2ccc(C)cc2)c(C)nn1-c1ccc(C(=O)Nc2cc(C)ccn2)cc1,> 10 µM
5.59,5.79,< 5.00,< 5.00,COc1ccc(CC(=O)NCCn2c(C(F)(F)F)nc3ccccc32)cc1,> 10 µM
5.52,6.11,< 5.00,< 5.00,COc1ccc(CNc2nc(-c3nnc(-c4ccccc4)o3)nc3ccccc23)cc1,> 10 µM
5.57,5.71,< 5.00,< 5.00,COc1ccc(-c2c(C)nn3c(N4CCC(C(=O)NC5CC5)CC4)cc(C)nc23)cc1OC,> 10 µM
5.67,5.44,< 5.00,< 5.00,O=c1c2ccccc2nc2cc(-c3ccc(O)cc3)c(-c3ccccc3)nn12,> 10 µM
6.32,< 5.00,6.09,< 5.00,COc1nc(-c2cccc(C(=O)N3C[C@@H]4CC[C@H](C3)C(=O)N4)c2)ncc1F,> 10 µM
< 5.00,< 5.00,7.74,< 5.00,Cn1c(=O)c2c(-c3ccc(Cl)cc3)n(-c3cccc4cccc(N)c34)cc2n(C)c1=O,> 10 µM
5.64,5.14,5.41,5.44,COc1ccc(-c2cc3ncc(C(=O)c4cc(Cl)ccc4O)cn3n2)cc1,> 10 µM
5.53,5.99,< 5.00,< 5.00,COc1ccc(CC(=O)N2N=C(C)C[C@]2(O)c2cccnc2)cc1,> 10 µM
5.22,< 5.00,5.45,5.78,O=C1NC(=O)c2ccc3c4c(ccc1c24)C(=O)N(c1ccccc1)C3=O,> 10 µM
< 5.00,< 5.00,< 5.00,< 5.00,COc1ccc(-c2c(-c3cccc(OC)c3)[nH]c3c2c(=O)[nH]c(=O)n3C)cc1,> 10 µM
6.49,6.34,6.11,6.20,CCNc1nc(C)cc(Nc2ccc(NC(=O)c3cc(C)ccc3C)cc2)n1,> 10 µM
5.76,5.67,5.46,5.58,Cc1ccc(C2=C[C@@H](c3ccc(Cl)cc3)n3nc(NC(=O)c4ccccc4)nc3N2)cc1,> 10 µM
5.64,5.49,5.31,5.41,COc1ccc(C(=O)N(C(=O)c2ccc(OC)cc2)c2c3c(nc4ccccc24)CCCC3)cc1,> 10 µM
5.60,< 5.00,5.43,5.52,CCCN(CCC)CCN1C(=O)[C@@H]2C(C(=O)Nc3cc(Cl)cc(Cl)c3)[C@@H]3C=C[C@]2(O3)C1C(=O)NC1CCCCC1 (stereo not given in full),> 10 µM
5.52,5.90,< 5.00,< 5.00,COc1ccc(CCNC(=O)c2cnn3c4c(cnc23)C[C@@H](C)CC4)cc1OC,> 10 µM
5.72,5.57,< 5.00,5.31,CCOc1ccc(-c2cc(NC(=O)c3cc(-c4cccnc4)nc4ccccc34)on2)cc1OCC,> 10 µM

pIC50 (Plasmodium falciparum [1]),pIC50 (Plasmodium falciparum [2]),pIC50 (Plasmodium falciparum [3]),pIC50 (Plasmodium falciparum [5]),Structure (SMILES),IC50 at 72 h [4]
< 5.00,< 5.00,< 5.00,5.11,CCOc1ccc(NC(=O)c2cn3nc(-c4ccc(OCC)cc4)cc3nc2C2CCN(C(=O)OC(C)(C)C)CC2)cc1,> 10 µM
5.57,5.30,5.46,5.60,CCNc1nc(C)cc(Nc2ccc(NS(=O)(=O)c3c(C)noc3C)cc2)n1,> 10 µM
5.69,5.30,5.23,5.09,O=C(Nc1ccc(C2(c3ccc(NC(=O)c4ccc(F)cc4)cc3)c3ccccc3C(=O)c3ccccc32)cc1)c1ccc(F)cc1,> 10 µM
5.62,5.04,5.41,5.38,Cc1ccc(C(=O)Nc2cc3c4c(c2)C2CCCC2CN4CC2CCCC32)cc1 (stereo not given),> 10 µM
5.61,5.31,< 5.00,5.02,COc1ccc(-c2cc3n(n2)C[C@@](C)(C(=O)NCc2ccccc2)N(Cc2ccc4c(c2)OCO4)C3=O)cc1,> 10 µM
6.22,5.92,5.89,5.95,CCN(CC)CC(O)COc1c(Br)cc(C(C)(C)c2cc(Br)c(OCC(O)CN(CC)CC)c(Br)c2)cc1Br (stereo not given),5.75 µM
5.59,< 5.00,< 5.00,< 5.00,COC(=O)c1ccccc1NC(=O)NCCn1nnc2cc(S(=O)(=O)N(C)C)ccc21,> 10 µM
5.73,5.03,5.46,5.27,Cc1ccc(CC[C@H]2Nc3ccccc3C(c3ccccc3)(c3ccccc3)O2)o1,> 10 µM
5.80,5.51,5.29,5.56,Oc1ccc2ncccc2c1[C@@H](Nc1ccccn1)c1cccc(Br)c1,> 10 µM
5.64,5.24,5.00,5.12,CCc1ccc(-c2cc3n(n2)C[C@@](C)(C(=O)NC2CCCCC2)N(c2cc(C)cc(C)c2)C3=O)cc1,> 10 µM
5.38,< 5.00,5.26,5.16,Cc1cc2nc(C)c(=O)n(Cc3ccc(C(=O)NCCN4CCCC[C@@H]4C)cc3)c2cc1C,> 10 µM
5.77,5.73,5.35,5.46,CC(=O)Nc1ccc(C)cc1S(=O)(=O)N1CC=C(c2c(C)n(Cc3ccccc3C)c3ccccc23)CC1,> 10 µM
5.42,5.72,< 5.00,< 5.00,Cc1ccc(-c2cc(C(=O)Nc3nnc(C(C)C)s3)no2)cc1F,> 10 µM
5.79,5.44,5.55,5.58,CCOc1cc(-c2cc(-c3ccccc3O)nc3ccc4ccccc4c23)cc(Br)c1O,> 10 µM
5.65,5.46,5.01,5.13,C[C@@]1(C(=O)NCc2ccccc2)Cn2nc(-c3ccccc3)cc2C(=O)N1c1ccc2c(c1)OCCO2,> 10 µM
5.55,< 5.00,5.48,5.54,Cn1n[n+](CCCCC(Cl)(Cl)Cl)c2ccccc21,> 10 µM
5.51,< 5.00,5.10,5.14,c1ccc(-c2noc(-c3ccc(NC4CCCCC4)nn3)n2)cc1,> 10 µM
5.52,5.32,< 5.00,< 5.00,COc1ccc(-c2cc3n(n2)C[C@@](C)(C(=O)NCc2ccccc2OC)N(c2cccc(OC)c2)C3=O)cc1,> 10 µM
5.47,5.24,5.03,5.33,Cc1ccc(N(Cc2cccs2)C(=O)c2cccs2)cc1Cl,> 10 µM
5.58,5.42,5.06,5.42,CCc1ccc(C2=C[C@@H](c3cccc(OC)c3)n3ncc(C(=O)Nc4ccc(C)cc4)c3N2)cc1,> 10 µM
5.56,5.82,< 5.00,< 5.00,Cc1ccc([C@H](c2c[nH]c3ccccc23)N(C)C(=O)C(C)C)cc1,> 10 µM
5.73,5.54,5.57,5.85,COc1ccc(CNCc2ccc(C)cc2)cc1Cn1ccnc1,> 10 µM
5.22,< 5.00,4.96,4.99,CCn1cc(-c2nc(-c3ccccc3C)no2)c(=O)c2cc(F)c(N3CCCCC3)cc21,> 10 µM
